Test results published in patent US11000033B2, “Ketone or oxime compound, and herbicide” (NISSAN CHEMICAL CORPORATION, priority 2014, dated 2021).

Key:
Format in all cases: in vivo
transplanted rice plant = experiment: Test Example 1: effect on crop, application before weed generation in submerged conditions (symbol a); details: application herbicide amount 320 g/ha
In short: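 Rice at 2.5 leaf stage transplanted into submerged soil (4 cm depth) sown with three weed species; herbicide applied before weed emergence.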

Galium spurium = experiment: Test Example 5: herbicidal effect by foliage application, plastic box (symbol Q); details: 320 g/ha, 3 weeks after application
In short: (§1)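 Post-emergence spray; diluvial soil (sterilized), ~1.5 cm seed cover; greenhouse 25–30° C; 14-day-old plants; water-diluted emulsion at predetermined dose; visual score at 3 wk post-treatment.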

wheat = experiment: Test Example 4: effect on crop by soil treatment (symbol e); details: for e: wheat, effect grade on crop: 320 g/ha
In short: (§2)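 Plants are raised in a greenhouse (25° C. to 30° C.) from spot-sown seed, which sits under about 1.5 cm of sterilized diluvial soil in a box shared with weed species.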

[1] = test system: Echinochloa oryzacola Vasing.; experiment: Test Example 2: herbicidal activity, application during weed generation in submerged conditions (symbol A); details: Table 23; application herbicide amount 320 g/ha; grade 0-5 by criteria of Test Example 1
In short: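 Seeds sown in flooded alluvial soil (4 cm water) were grown in a 25-30° C greenhouse. At the one- to two-leaf stage, diluted emulsion of compound was applied to the water surface at a predetermined rate. Effect was scored 3 weeks later.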

corn = experiment: Test Example 5: effect on crop by foliage application, plastic box (symbol c); details: 320 g/ha, 3 weeks after application
In short: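 Crop and weed seeds sown in spots in sterilized diluvial soil in plastic boxes and covered with about 1.5 cm soil. Plants raised in a greenhouse at 25° C. to 30° C. for foliar application.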

rice = experiment: Test Example 4: effect on crop by soil treatment (symbol b); details: for b: directly sowed rice plant, effect grade on crop: 320 g/ha
In short: as §2

Stellaria media = experiment: Test Example 5: herbicidal effect by foliage application, plastic box (symbol P); details: 320 g/ha, 3 weeks after application
In short: as §1

Digitaria ciliaris = experiment: Test Example 4: herbicidal effect by soil treatment (symbol F); details: for F: Digitaria ciliaris, herbicidal effect grade: 320 g/ha
In short: (§3)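 Seeds were sown in sterilized diluvial soil, covered with about 1.5 cm of soil, and the soil surface was sprayed with a water-diluted emulsion of the compound at a predetermined rate. Plants grew in a greenhouse at 25° C. to 30° C.; effects were scored visually 3 weeks after application.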

soybean = experiment: Test Example 4: effect on crop by soil treatment (symbol d); details: for d: soybean, effect grade on crop: 320 g/ha
In short: as §2

Cyperus difformis = experiment: Test Example 3: herbicidal effect by foliage application, Wagner pot (symbol E); details: application herbicide amount 320 g/ha; for E herbicidal effect grade: Table 24
In short: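 Plants sown in submerged alluvial soil (water depth 0.1–0.5 cm) in a 25–30 °C greenhouse and grown 14 days. An emulsion of the compound diluted in water to a set herbicide amount was sprayed uniformly on foliage. Effect on each plant scored 3 weeks after application.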

rapeseed = experiment: Test Example 4: effect on crop by soil treatment (symbol g); details: for g: rapeseed, effect grade on crop: 320 g/ha; for Effect on crop grade, g: rapeseed: application herbicide amount 320 g/ha
In short: as §2

Avena fatua = experiment: Test Example 4: herbicidal effect by soil treatment (symbol I); details: for I: Avena fatua, herbicidal effect grade: 320 g/ha; for Herbicidal effect grade, I: Avena fatua: application herbicide amount 320 g/ha
In short: as §3

[2] = application herbicide amount 320 g/ha

SMILES | Effect grade on crop, a: transplanted rice plant (transplanted rice plant) | Herbicidal effect grade, A: Echinochloa oryzacola Vasing. [1] | c: corn, effect on crop (criteria 0-5) (corn) | P: Stellaria media, herbicidal effect (criteria 0-5) (Stellaria media) | herbicidal effect on E, grade 0-5 (Cyperus difformis) | g: rapeseed, effect grade on crop (rapeseed) | e: wheat, effect grade on crop (wheat) | b: directly sowed rice plant, effect grade on crop (rice) | F: Digitaria ciliaris, herbicidal effect grade (Digitaria ciliaris) | d: soybean, effect grade on crop (soybean) | I: Avena fatua, herbicidal effect grade (Avena fatua) | Effect on crop grade, g: rapeseed (rapeseed) | Effect on crop grade, e: wheat (wheat; [2]) | c: corn, effect on crop grade (corn) | Effect on crop grade, b: directly sowed rice plant (rice; [2]) | P: Stellaria media, herbicidal effect grade (Stellaria media) | Herbicidal effect grade, F: Digitaria ciliaris (Digitaria ciliaris; [2]) | Effect on crop grade, d: soybean (soybean; [2]) | E herbicidal effect grade (Cyperus difformis) | Herbicidal effect grade, I: Avena fatua (Avena fatua) | other results
CON=C(C)CC1CC(OC(=O)COc2ccc(Cl)cc2Cl)=C(c2c(C)cc(C)cc2C)C1=O (stereo not drawn) [1-075] | 5 (Herbicidal ratio of 90% or more (almost completely withered)) | 5 (Herbicidal ratio of 90% or more (almost completely withered)) | 4 (Herbicidal ratio of 70% or higher and lower than 90%) | 1 (Herbicidal ratio of 5% or higher and lower than 20%) | 5 (Herbicidal ratio of 90% or more (almost completely withered)) |  |  |  |  |  |  |  |  |  |  |  |  |  |  |  | Q: Galium spurium, herbicidal effect (criteria 0-5) (Galium spurium): 0 (Herbicidal ratio of 5% or lower (almost no effect)); e (wheat) effect on crop grade (wheat; [2]): 4 (Herbicidal ratio of 70% or higher and lower than 90%); b (directly sowed rice plant) effect on crop grade (rice; [2]): 5 (Herbicidal ratio of 90% or more (almost completely withered)); F (Digitaria ciliaris) herbicidal effect grade (Digitaria ciliaris; [2]): 5 (Herbicidal ratio of 90% or more (almost completely withered)); d (soybean) effect on crop grade (soybean; [2]): 0 (Herbicidal ratio of 5% or lower (almost no effect))
CON=C(C)CC1CC(OC(=O)COc2ccc(C(C)=O)cc2)=C(c2c(C)cc(C)cc2C)C1=O (stereo not drawn) [1-080] | 5 (Herbicidal ratio of 90% or more (almost completely withered)) | 4 (Herbicidal ratio of 70% or higher and lower than 90%) | 5 (Herbicidal ratio of 90% or more (almost completely withered)) | 0 (Herbicidal ratio of 5% or lower (almost no effect)) | 5 (Herbicidal ratio of 90% or more (almost completely withered)) | 4 (Herbicidal ratio of 70% or higher and lower than 90%) | 4 (Herbicidal ratio of 70% or higher and lower than 90%) | 5 (Herbicidal ratio of 90% or more (almost completely withered)) | 5 (Herbicidal ratio of 90% or more (almost completely withered)) | 1 (Herbicidal ratio of 5% or higher and lower than 20%) | 3 (Herbicidal ratio of 40% or higher and lower than 70%) |  |  |  |  |  |  |  |  |  | 
CON=C(C)CC1CC(OC(=O)C=Cc2ccco2)=C(c2c(C)cc(C)cc2C)C1=O (stereo not drawn) [1-091] | 4 (Herbicidal ratio of 70% or higher and lower than 90%) | 5 (Herbicidal ratio of 90% or more (almost completely withered)) | 5 (Herbicidal ratio of 90% or more (almost completely withered)) | 0 (Herbicidal ratio of 5% or lower (almost no effect)) | 5 (Herbicidal ratio of 90% or more (almost completely withered)) | 3 (Herbicidal ratio of 40% or higher and lower than 70%) | 4 (Herbicidal ratio of 70% or higher and lower than 90%) | 5 (Herbicidal ratio of 90% or more (almost completely withered)) | 5 (Herbicidal ratio of 90% or more (almost completely withered)) | 0 (Herbicidal ratio of 5% or lower (almost no effect)) | 3 (Herbicidal ratio of 40% or higher and lower than 70%) |  |  |  |  |  |  |  |  |  | 
CON=C(C)CC1CC(OC(=O)COCC(F)(F)F)=C(c2c(C)cc(C)cc2C)C1=O (stereo not drawn) [1-092] | 5 (Herbicidal ratio of 90% or more (almost completely withered)) | 5 (Herbicidal ratio of 90% or more (almost completely withered)) | 5 (Herbicidal ratio of 90% or more (almost completely withered)) | 0 (Herbicidal ratio of 5% or lower (almost no effect)) | 5 (Herbicidal ratio of 90% or more (almost completely withered)) | 4 (Herbicidal ratio of 70% or higher and lower than 90%) | 4 (Herbicidal ratio of 70% or higher and lower than 90%) | 5 (Herbicidal ratio of 90% or more (almost completely withered)) | 5 (Herbicidal ratio of 90% or more (almost completely withered)) | 0 (Herbicidal ratio of 5% or lower (almost no effect)) | 2 (Herbicidal ratio of 20% or higher and lower than 40%) |  |  |  |  |  |  |  |  |  | 
CC#CC(=O)OC1=C(c2c(C)cc(C)cc2C)C(=O)C(CC(C)=NOC)C1 (stereo not drawn) [1-095] | 5 (Herbicidal ratio of 90% or more (almost completely withered)) | 5 (Herbicidal ratio of 90% or more (almost completely withered)) | 5 (Herbicidal ratio of 90% or more (almost completely withered)) | 2 (Herbicidal ratio of 20% or higher and lower than 40%) | 5 (Herbicidal ratio of 90% or more (almost completely withered)) | 4 (Herbicidal ratio of 70% or higher and lower than 90%) | 4 (Herbicidal ratio of 70% or higher and lower than 90%) | 5 (Herbicidal ratio of 90% or more (almost completely withered)) | 5 (Herbicidal ratio of 90% or more (almost completely withered)) | 0 (Herbicidal ratio of 5% or lower (almost no effect)) | 3 (Herbicidal ratio of 40% or higher and lower than 70%) |  |  |  |  |  |  |  |  |  | 
CON=C(CC1CC(O)=C(c2c(C)cc(Br)cc2C)C1=O)C(C)C (stereo not drawn) [9-001] | 4 (Herbicidal ratio of 70% or higher and lower than 90%) | 4 (Herbicidal ratio of 70% or higher and lower than 90%) |  |  |  |  |  |  |  |  |  | 0 (Herbicidal ratio of 5% or lower (almost no effect)) | 0 (Herbicidal ratio of 5% or lower (almost no effect)) | 4 (Herbicidal ratio of 70% or higher and lower than 90%) | 4 (Herbicidal ratio of 70% or higher and lower than 90%) | 0 (Herbicidal ratio of 5% or lower (almost no effect)) | 4 (Herbicidal ratio of 70% or higher and lower than 90%) | 0 (Herbicidal ratio of 5% or lower (almost no effect)) | 2 (Herbicidal ratio of 20% or higher and lower than 40%) | 0 (Herbicidal ratio of 5% or lower (almost no effect)) | 
CON=C(CC1CC(O)=C(c2c(C)cc(Br)cc2C)C1=O)C1CC1 (stereo not drawn) [9-002] | 5 (Herbicidal ratio of 90% or more (almost completely withered)) | 5 (Herbicidal ratio of 90% or more (almost completely withered)) |  |  |  |  |  |  |  |  |  | 0 (Herbicidal ratio of 5% or lower (almost no effect)) | 0 (Herbicidal ratio of 5% or lower (almost no effect)) | 5 (Herbicidal ratio of 90% or more (almost completely withered)) | 5 (Herbicidal ratio of 90% or more (almost completely withered)) | 0 (Herbicidal ratio of 5% or lower (almost no effect)) | 5 (Herbicidal ratio of 90% or more (almost completely withered)) | 0 (Herbicidal ratio of 5% or lower (almost no effect)) | 5 (Herbicidal ratio of 90% or more (almost completely withered)) | 3 (Herbicidal ratio of 40% or higher and lower than 70%) | 
CON=C(CC1CC(O)=C(c2c(C)cc(-n3cc(Cl)cn3)cc2C)C1=O)C(C)C (stereo not drawn) [9-004] | 5 (Herbicidal ratio of 90% or more (almost completely withered)) | 5 (Herbicidal ratio of 90% or more (almost completely withered)) |  |  |  |  |  |  |  |  |  | 0 (Herbicidal ratio of 5% or lower (almost no effect)) | 0 (Herbicidal ratio of 5% or lower (almost no effect)) | 5 (Herbicidal ratio of 90% or more (almost completely withered)) | 0 (Herbicidal ratio of 5% or lower (almost no effect)) | 2 (Herbicidal ratio of 20% or higher and lower than 40%) | 5 (Herbicidal ratio of 90% or more (almost completely withered)) | 0 (Herbicidal ratio of 5% or lower (almost no effect)) | 5 (Herbicidal ratio of 90% or more (almost completely withered)) | 2 (Herbicidal ratio of 20% or higher and lower than 40%) | 
